Consider 23 molecules from patent US11666561B2, “Compounds for use in regulating follicle maturation” (AARHUS UNIVERSITET, priority 2017, dated 2023).

The test relates to primordial-to-primary follicle transition. The test can be described thus: In vitro organ culture of mouse ovaries with compound, H&E histology and counting of primordial, primary and secondary follicles. The settings on record: for effect on primordial-to-primary follicle transition / primordial follicle activation: in vitro cultured mouse ovaries, concentration not given. How it is done: Ovaries obtained from mice were washed twice with culture medium. Antagonists or agonists to be tested were dissolved in suitable solvents and added to the medium. As a control medium comprising solvent without the antagonist or agonist was used. One of the ovaries was cultured in a control medium and another was cultured with the antagonist or agonist. The tested antagonists or agonists and their concentrations are outlined in table 2.
Ovaries were incubated with antagonist at 37° C. and 5% CO2 for 24 and 96 hours, respectively (see table 3).
Cultures ovaries were fixed, embedded in paraffin and sliced microscopy. The sectioned ovaries were stained with hematoxylin and eosin (H&E) to visualize the morphology of the ovary by microscopy.
The number of primordial, primary and secondary follicles was determined, and it was determined whether the antagonist or agonist was capable of regulating folliculogenesis.
C57BL/6j×CBA F1 hybrid mice (Janvier Labs, France) were housed and bred in the animal facilities at Department of Biomedicine, Aarhus University. Animals were housed in a 12:12 h controlled light-dark environment and were provided with food and water ad libitum. 7-day-old female pups were used for the study.
Pups were sacrificed and ovaries were excised. Using a stereomicroscope MZ75 (Leica Microsystems, Germany), excess tissue was removed. During the dissection, ovaries were kept at 37° C. in culture medium: aMEM (Thermo Fisher) supplemented with 10% FBS (Thermo Fisher), 100 mIU/mL of FSH (Sigma-Aldrich), 100 IU/mL penicillin (Thermo Fisher), 100 μg/mL streptomycin (Thermo Fisher) and 1% Insulin-Transferrin-Selenium (Thermo Fisher). Isolated ovaries were transferred into well inserts (PET membrane ThinCert, 0.4 μm-pore size; Greiner bio-one) in 24-well plates (Tissue culture treated, cell culture plates; Costar). 200-300 μL of culture medium was added to the well below the insert and up to two ovaries were placed on the membrane of each insert. The culture medium was supplemented with different concentrations of the tested compounds; bpV(HOpic) (Sigma-Aldrich), Temsirolimus (Sigma-Aldrich), Ketotifen (Sigma-Aldrich), 3PO (Sigma-Aldrich), Dorsomorphin (Sigma-Aldrich), AICAR (Sigma-Aldrich), NCG (Sigma-Aldrich), and Dyphylline (Cayman Chemical). Up to six wells in the 24-well plate were used for inserts. Sterile dH2O was added to the rest of the wells to ensure humidity and reduce evaporation. The ovaries were cultured at 37° C., 5% CO2 for four days. 150 μL of medium was replaced every other day with fresh culture medium.
Ovaries kept in organ culture for four days were fixed for 24 hours in 4% paraformaldehyde solution at 4° C. After fixation, ovaries were dehydrated in ethanol series using 70%, 96% and 99.9% ethanol. Xylene was used as clearing agent before the ovaries were infiltrated in paraffin wax. 5 μm-sections of samples in paraffin were cut using a microtome (Cut 6062, SLEE medical, Germany). Paraffin sections were mounted on glass slides, paraffin was melted at 60° C., and the samples were stained with hematoxylin and eosin (using standard protocols).
The samples were deparaffinized by incubating in xylene for 2×15 min. and subsequently rehydrated in series of ethanol; 3×2 min. in 99.9% ethanol, 2 min. in 96% ethanol, and 2 min. in 70% ethanol. The samples were then rinsed in dH2O, stained in hematoxylin for 40 sec., rinsed in dH2O for 5 min., and stained in eosin for 46 sec. The samples were dehydrated in ethanol: 2×2 min. in 96% ethanol, 2×2 min in 99.9% ethanol, and finally cleared up in xylene for at least 30 min before mounting the samples using Eukitt mounting medium (Sigma-Aldrich) and cover glass.
The number of follicles at each developmental stage was counted using an inverted research microscope (DM14000B, Leica Microsystems, Germany). The follicles of every 3rd to 4th section of each ovary were counted and the distribution of follicles in the different stages in percentage was determined.

Where [1] appears, read: 1.0 μM Trigonellin hydrochloride, 96 hours.

Where a name gives a salt, the structure may show the parent alone.

For `O=C(O)c1cc(N(Cc2ccccc2O)Cc2cc(O)ccc2O)ccc1O` [Lavendustin, 5-amino-((N-2,5-dihydroxybenzyl)-N′-2-hydroxybenzyl)aminosalicylic acid], the Effect entry by setting is: (Table 1, marked (ongoing)) “promotes”; (Table 2, marked (ongoing)) “promotes”.

As for `CC(C)[C@@H](CS(=O)(=O)C(C)C)N1C(=O)[C@@](C)(CC(=O)O)C[C@H](c2cccc(Cl)c2)[C@H]1c1ccc(Cl)cc1` [AMG-232, 2-[(3R,5R,6S)-5-(3-chlorophenyl)-6-(4-chlorophenyl)-3-methyl-1-[(2S)-3-methyl-1-propan-2-ylsulfonylbutan-2-yl]-2-oxopiperidin-3-yl]acetic acid], the Effect result reads like this: (Table 1, marked (ongoing)) “promotes”; (Table 2, marked (ongoing)) “promotes”.

For the molecule `Nc1cc(-c2ccncc2)c[nH]c1=O` [Amrinone, 3-amino-5-pyridin-4-yl-1H-pyridin-2-one], the Effect entry is “promotes” (Table 1, marked (ongoing)) and “promotes” (Table 2, marked (ongoing)).

With `CN(c1ncccc1CNc1nc(Nc2ccc3c(c2)CC(=O)N3)ncc1C(F)(F)F)S(C)(=O)=O` [PF-562271, N-methyl-N-[3-[[[2-[(2-oxo-1,3-dihydroindol-5-yl)amino]-5-(trifluoromethyl)pyrimidin-4-yl]amino]methyl]pyridin-2-yl]methanesulfonamide], the Effect entry is “promotes” (Table 1, marked (ongoing)) and “promotes” (Table 2, marked (ongoing)).

Turning to `Nc1ccn([C@@H]2O[C@H](CO)[C@@H](O)[C@@H]2O)c(=O)n1` [MK-8242, 4-amino-1-[(2R,3S,4S,5R)-3,4-dihydroxy-5-(hydroxymethyl)oxolan-2-yl]pyrimidin-2-one], the Effect entry is reported as “promotes” (Table 1, marked (ongoing)) and “promotes” (Table 2, marked (ongoing)).

Turning to `CN(C)C(=N)N=C(N)N` [Metformin, N,N-Dimethylimiddicarbonimiddiamid], the Effect result is given as “promotes” (Table 1, marked (ongoing)) and “promotes” (Table 2, marked (ongoing)).

Regarding `C=CC(=O)N1CCC(Oc2cc3c(Nc4ccc(Cl)c(Cl)c4F)ncnc3cc2OC)CC1` [Poziotinib, 1-[4-[4-(3,4-dichloro-2-fluoroanilino)-7-methoxyquinazolin-6-yl]oxypiperidin-1-yl]prop-2-en-1-one], the Effect entry reads like this: (Table 1, marked (ongoing)) “promotes”; (Table 2, marked (ongoing)) “promotes”.

As to `CC(=O)CCCCn1c(=O)c2c(ncn2C)n(C)c1=O` [Pentoxifylline, 3,7-dimethyl-1-(5-oxohexyl)purine-2,6-dione], the Effect entry is recorded as “promotes” (Table 1, marked (ongoing)) and “promotes” (Table 2, marked (ongoing)).

`CO[C@H]1C[C@@H]2CC[C@@H](C)[C@@](O)(O2)C(=O)C(=O)N2CCCC[C@H]2C(=O)O[C@H]([C@H](C)C[C@@H]2CC[C@@H](OC(=O)C(C)(CO)CO)[C@H](OC)C2)CC(=O)[C@H](C)/C=C(\C)[C@@H](O)[C@@H](OC)C(=O)[C@H](C)C[C@H](C)/C=C/C=C/C=C/1C` [Temsirolimus]: the “effect on primordial-to-primary follicle transition / primordial follicle activation” value was “decrease the rate of primordial-to-primary transition”.

With `Cn1c(=O)n(-c2ccc(C(C)(C)C#N)cc2)c2c3cc(-c4cnc5ccccc5c4)ccc3ncc21` [Dactolisib, -methyl-2-(4-(3-methyl-2-oxo-8-(quinolin-3-yl)-2,3-dihydro-1H-imidazo[4,5-c]quinolin-1-yl)phenyl)propanenitrile], the Effect result was “promotes” (Table 1, marked (ongoing)) and “promotes” (Table 2, marked (ongoing)).

Turning to `COc1cc(N2CCC(N3CCN(C)CC3)CC2)ccc1Nc1nc2c(c(Nc3ccccc3S(=O)(=O)NC(C)C)n1)CCN2` [CT-707], the Effect entry is, setting by setting: (Table 1, marked (ongoing)) “promotes”; (Table 2, marked (ongoing)) “promotes”.

As for `CN(C)C/C=C/C(=O)Nc1cc2c(Nc3ccc(F)c(Cl)c3)ncnc2cc1O[C@H]1CCOC1` [Afatinib, (E)-N-[4-(3-chloro-4-fluoroanilino)-7-[(3S)-oxolan-3-yl]oxyquinazolin-6-yl]-4-(dimethylamino)but-2-enamide], the Effect result is “promotes” (Table 1, marked (ongoing)) and “promotes” (Table 2, marked (ongoing)).

With `OCCN(CCO)c1nc(N2CCCCC2)c2nc(N(CCO)CCO)nc(N3CCCCC3)c2n1` [Dipyridamole, 2-[[2-[bis(2-hydroxyethyl)amino]-4,8-di(piperidin-1-yl)pyrimido[5,4-d]pyrimidin-6-yl]-(2-hydroxyethyl)amino]ethanol], the Effect entry is reported as “promotes” (Table 1, marked (ongoing)) and “promotes” (Table 2, marked (ongoing)).

In the case of `C[n+]1cccc(C(=O)[O-])c1` [Trigonellin hydrochloride], under setting [1], the “decrease in the average numbers of primordial follicles compared to the control” value was ~20% and the “increase compared to the control (follicle stage not given)” value was ~74%.

In the case of `CC1(O)CC(c2nc(-c3ccc4ccc(-c5ccccc5)nc4c3)c3c(N)nccn23)C1` (stereo not shown) [Linsitinib, 3-[8-amino-1-(2-phenylquinolin-7-yl)imidazo[1,5-a]pyrazin-3-yl]-1-methylcyclobutan-1-ol], the Effect entry by setting is: (Table 1, marked (ongoing)) “promotes”; (Table 2, marked (ongoing)) “promotes”.

Consider `Cn1c(=O)c2c(ncn2CC(O)CO)n(C)c1=O` (stereo not shown) [Dyphylline, 7-(2,3-dihydroxypropyl)-1,3-dimethylpurine-2,6-dione], for which the “effect on primordial-to-primary follicle transition / primordial follicle activation” value is recorded as “activation of primordial follicles”. Moreover, where the note is “10 and 100 μM Dyphylline, 96 hours, number too small for statistics”, the “effect on follicle distribution” value is on record as “has the potential to activate primordial follicle distribution”. Moreover, the Effect result (Table 1, effect with a figure cited) was “Promotes”. Moreover, under “Table 2, effect with a figure cited”, the Effect entry is “Promotes”.

For `O=C1C=C/C(=C(/[O-])O)N=C1.[K+].[O-][O-].[O-][O-].[O]=[V]` [bpV(HOpic)], the “effect on primordial-to-primary follicle transition / primordial follicle activation” value is on record as “increase the rate of primordial-to-primary transition”.

For the molecule “Cixutumumab: fully human IgG1 monoclonal antibody directed against the human insulin-like growth factor-1 receptor”, the Effect result by setting is: (Table 1, marked (ongoing)) “promotes”; (Table 2, marked (ongoing)) “promotes”.

Turning to `COc1ccc(Cl)c(Nc2nc3ccccc3nc2NS(=O)(=O)c2cccc(NC(=O)C(C)(C)N)c2)c1` [XI147, 2-amino-N-[3-({3-[(2-chloro-5-methoxyphenyl)amino]quinoxalin-2-yl}sulfamoyl)phenyl]-2-m], the Effect entry reads like this: (Table 1, marked (ongoing)) “promotes”; (Table 2, marked (ongoing)) “promotes”.

For the molecule `CS(=O)(=O)N1CCN(Cc2cc3nc(-c4cccc5[nH]ncc45)nc(N4CCOCC4)c3s2)CC1` [Pictilisib, 2-(1H-indazol-4-yl)-6-(4-methanesulfonylpiperazin-1-ylmethyl)-4-morpholin-4-ylthieno(3,2-d)pyrimidine], the Effect result (Table 1, marked (ongoing)) is “promotes” and the Effect entry (Table 2, marked (ongoing)) is “promotes”.

Consider `COc1ncc(-c2nc3c(n2C(C)C)[C@H](c2ccc(Cl)cc2)N(c2cc(Cl)cn(C)c2=O)C3=O)c(OC)n1` [HDM201, (6S)-5-(5-chloro-1,2-dihydro-1-methyl-2-oxo-3-pyridinyl)-6-(4-chlorophenyl)-2-(2,4-dimethoxy-5-pyrimidinyl)-5,6-dihydro-1-(1-methylethyl)-Pyrrolo[3,4-d]imidazol-4(1H)-one], for which the Effect entry is, setting by setting: (Table 1, marked (ongoing)) “promotes”; (Table 2, marked (ongoing)) “promotes”.

As to `CCOc1cc2ncc(C#N)c(Nc3ccc(OCc4ccccn4)c(Cl)c3)c2cc1NC(=O)/C=C/CN(C)C` [AVE1642, (E)-N-[4-[3-chloro-4-(pyridin-2-ylmethoxy)anilino]-3-cyano-7-ethoxyquinolin-6-yl]-4-(dimethylamino)but-2-enamide], the Effect entry is listed as “promotes” (Table 1, marked (ongoing)) and “promotes” (Table 2, marked (ongoing)).

Regarding `COC(=O)C1=C(C)NC(C)=C([N+](=O)[O-])C1c1ccccc1C(F)(F)F` (stereo not shown) [BAY 1217389, methyl 2,6-dimethyl-5-nitro-4-[2-(trifluoromethyl)phenyl]-1,4-dihydropyridine-3-carboxylate], the Effect result (Table 1, marked (ongoing)) is reported as “promotes” and the Effect entry (Table 2, marked (ongoing)) is “promotes”.
